Data set [1] is described as follows: Solubility of folic acid in water and 0.1 M sodium bicarbonate. The format is physicochemical. The protocol:
FIGS. 20 and 21 show several examples of these hydrogels. A-4 is a hydrogel of 2% sucrose stearate/sucrose distearate containing 2.5 mg/ml of folic acid. […] F-4 is a similar hydrogel containing 1 mM curcumin formed from 2% sucrose stearate/sucrose distearate in 0.1M sodium bicarbonate again after heating to 45 degrees C., vortexing to distribute the curcumin and letting the hydrogel form upon cooling to room temperature.

Data set [2] in a line: Curcumin concentration in tetradecylmaltoside hydrogel versus solubility in water. The format is physicochemical. From the text: Curcumin was also used in the preparation of hydrogels. Curcumin is a natural product isolated from the root of Curcuma longa from which the spice turmeric is obtained. It has been reported to have potent antioxidative, anti-inflammatory and antiseptic properties, but has extremely low solubility in water and poor bioavailability which limits its pharmaceutical use. By encapsulating curcumin in a hydrogel composed of 2% tetradecylmaltoside a concentration of the compound in the gel can be obtained which is about 33,000 times higher than the solubility of curcumin in water, for example, 1×10^−3 M in the hydrogel vs. 3×10^−8 M in water. The resulting gels are yellow or yellow-orange in color depending on whether sodium bicarbonate is present during the formulation of the gel (see FIG. 13). FIG. 13 is a pictorial representation showing hydrogels of curcumin. Sample E-2 is a hydrogel composed of 2% tetradecylmaltoside and 1 mM curcumin. Sample F-2 is a hydrogel composed of 2% tetradecylmaltoside, 1 mM curcumin, and 0.1 M sodium bicarbonate.

This note sets out measurements from patent US8470370B2, “Controlled release formulations” (Aegis Therapeutics, LLC, priority 2007, dated 2013).

`Nc1nc2ncc(CNc3ccc(C(=O)N[C@@H](CCC(=O)O)C(=O)O)cc3)nc2c(=O)[nH]1` [Folic acid, folic acid]: the “solubility of folic acid” value is “completely dissolves” in data set [1] (0.1 M sodium bicarbonate, 2.5 mg/ml for sample B-5) and “poorly soluble” in data set [1] (water, 2.5 mg/ml for sample A-5).
Regarding `COc1cc(/C=C/C(=O)CC(=O)/C=C/c2ccc(O)c(OC)c2)ccc1O` [curcumin], the “concentration of curcumin in the hydrogel” value in data set [2] (2% tetradecylmaltoside hydrogel) was 1000 µM. The “concentration in gel relative to solubility in water” value in data set [2] (2% tetradecylmaltoside hydrogel vs water) is “about 33,000 times”.
